Assay results: the NIST ThermoML archive (doi:10.1016/j.fluid.2004.09.013)

Conditions: for mass density: Fluid (supercritical or subcritical phases), Vibrating tube method; for vapor or sublimation pressure: Liquid

C/C=C/C [(E)-2-butene]
Conditions	mass density [kg/m3]
273.24 K, 553 kPa	627.87
273.24 K, 4992 kPa	633.27
273.24 K, 9995 kPa	638.88
273.24 K, 14991 kPa	644.04
273.24 K, 19997 kPa	648.86
273.24 K, 24996 kPa	653.38
273.24 K, 29993 kPa	657.62
273.24 K, 34997 kPa	661.64
273.24 K, 39989 kPa	665.43
278.25 K, 553 kPa	622.2
278.25 K, 4990 kPa	627.88
278.25 K, 10005 kPa	633.76
278.25 K, 15007 kPa	639.16
278.25 K, 20007 kPa	644.16
278.25 K, 24990 kPa	648.82
278.25 K, 30005 kPa	653.23
278.25 K, 34987 kPa	657.36
278.25 K, 40004 kPa	661.3
283.26 K, 551 kPa	616.48
283.26 K, 4990 kPa	622.46
283.26 K, 9993 kPa	628.6
283.26 K, 15009 kPa	634.25
283.26 K, 20003 kPa	639.45
283.26 K, 24994 kPa	644.29
283.26 K, 29985 kPa	648.83
283.26 K, 35008 kPa	653.12
283.26 K, 40005 kPa	657.17
288.27 K, 548 kPa	610.68
288.27 K, 4995 kPa	616.99
288.27 K, 9994 kPa	623.43
288.27 K, 14992 kPa	629.3
288.27 K, 19992 kPa	634.71
288.27 K, 24999 kPa	639.75
288.27 K, 29993 kPa	644.44
288.27 K, 34985 kPa	648.85
288.27 K, 40007 kPa	653.04
293.28 K, 550 kPa	604.8
293.28 K, 4985 kPa	611.45
293.28 K, 9991 kPa	618.21
293.28 K, 14993 kPa	624.34
293.28 K, 19997 kPa	629.98
293.28 K, 24993 kPa	635.19
293.28 K, 29998 kPa	640.06
293.28 K, 35013 kPa	644.64
293.28 K, 39998 kPa	648.92
298.29 K, 551 kPa	598.83
298.29 K, 4989 kPa	605.85
298.29 K, 14986 kPa	619.36
298.29 K, 19984 kPa	625.21
298.29 K, 25012 kPa	630.65
298.29 K, 29999 kPa	635.67
298.29 K, 34986 kPa	640.36
298.29 K, 39987 kPa	644.79
298.3 K, 9994 kPa	612.96
303.3 K, 590 kPa	592.81
303.3 K, 4982 kPa	600.18
303.3 K, 9998 kPa	607.66
303.3 K, 19987 kPa	620.43
303.3 K, 25004 kPa	626.07
303.3 K, 29998 kPa	631.26
303.3 K, 35005 kPa	636.13
303.31 K, 15001 kPa	614.35
303.31 K, 39999 kPa	640.69
308.31 K, 635 kPa	586.69
308.31 K, 4989 kPa	594.43
308.32 K, 10005 kPa	602.29
308.32 K, 14996 kPa	609.28
308.32 K, 19995 kPa	615.63
308.32 K, 24994 kPa	621.44
308.32 K, 29983 kPa	626.82
308.32 K, 35009 kPa	631.86
308.32 K, 39996 kPa	636.54
313.2 K, 869 kPa	580.91
313.21 K, 4996 kPa	588.66
313.21 K, 10004 kPa	596.91
313.21 K, 14989 kPa	604.2
313.21 K, 20008 kPa	610.83
313.21 K, 24999 kPa	616.85
313.21 K, 29996 kPa	622.41
313.21 K, 34992 kPa	627.58
313.21 K, 39986 kPa	632.41
318.21 K, 939 kPa	574.67
318.21 K, 5000 kPa	582.76
318.21 K, 9985 kPa	591.43
318.21 K, 14990 kPa	599.1
318.21 K, 20004 kPa	605.99
318.21 K, 25005 kPa	612.25
318.21 K, 29987 kPa	617.99
318.21 K, 34986 kPa	623.33
318.21 K, 39990 kPa	628.31
323.22 K, 1000 kPa	568.23
323.22 K, 4994 kPa	576.71
323.22 K, 9997 kPa	585.9
323.22 K, 14997 kPa	593.93
323.22 K, 19997 kPa	601.1
323.22 K, 24992 kPa	607.59
323.22 K, 30007 kPa	613.57
323.22 K, 34983 kPa	619.06
323.22 K, 39993 kPa	624.2
328.22 K, 1068 kPa	561.65
328.22 K, 4987 kPa	570.54
328.22 K, 9989 kPa	580.26
328.22 K, 14994 kPa	588.69
328.22 K, 19994 kPa	596.17
328.22 K, 24990 kPa	602.92
328.22 K, 30006 kPa	609.12
328.22 K, 34984 kPa	614.78

Conditions	vapor or sublimation pressure [kPa]
274.84 K	105.09
278.8 K	122.11
283.68 K	145.21
287.85 K	167.86
292.59 K	196.47
296.57 K	221.89
307.78 K	313.51
313.09 K	365.29
318.13 K	418.65
327.87 K	543.04
